Assay results from US20100190848A1, “Cysteine-protease inhibitors” (UNIVERSITAT JAUME I, priority 2007, published 2010).

Tests used:
[1] = tested on: Trypanosoma brucei brucei (Tbb); test: Inhibition test on Trypanosoma brucei brucei by ATP-bioluminescence; format: cell-based; conditions: concentration not given
Procedure: Inhibition tests on Trypanosoma brucei brucei were performed by ATP-bioluminescence (Z. B. Mackey et al, Chem. Biol. Drug Des. 2006, 67, pp. 355-363).

[2] = target: falcipain (FP2) (Plasmodium falciparum, UniProt Q8I6U4); test: Enzymatic inhibition of recombinant falcipain (FP2), fluorogenic Z-Phe-Arg-AMC substrate; format: biochemical
Procedure: Inhibition of cysteine-proteases cruzain, rhodesain, cathepsin B (Tb CatB) and falcipain (FP2) was assessed by quantification of the resulting fluorescence emission of the proteolytic breakdown of synthetic compound Z-Phe-Arg-AMC (Bachem). Inhibitors Ia or Ib were used at concentrations ranging form 10 nM to 10.000 nM (from 500 nM to 10000 nM for Tb CatB); thus, serial dilutions in DMSO were prepared with the minimal concentration of inhibitor Ia or Ib used for calculations and at least 10 times higher than that of the enzyme. These experiments were performed by distributing inhibitor Ia or Ib in 96 wells, fluorescence was recorded on a Flex Station fluorimeter (Molecular Devices), 355 nm excitation and 460 nm emission at 25° C., distributing 100 μl of substrate using a multichannel pipette at a similar volume of the inhibitor enzyme preincubated at 25° C. for 5 minutes. In each series of experiments, the enzyme with DMSO and the enzyme in the presence of the known irreversible inhibitor K11777 (N methyl piperazine-Phe-HPhe-(CH═CHSO2 Ph)), Arris Pharmaceuticals Inc., South San Francisco, Calif.) were used as controls. […]

[3] = target: rhodesain (Trypanosoma brucei rhodesiense, UniProt Q95PM0); test: Enzymatic inhibition of recombinant rhodesain, fluorogenic Z-Phe-Arg-AMC substrate; format: biochemical, T. Brucei; conditions: for % inhibition (DMSO) Rhodesain: concentration not given; for activity against rhodesain (in words): summary statement
Procedure: (§1) Inhibition of cysteine-proteases cruzain, rhodesain, cathepsin B (Tb CatB) and falcipain (FP2) was assessed by quantification of the resulting fluorescence emission of the proteolytic breakdown of synthetic compound Z-Phe-Arg-AMC (Bachem). Inhibitors Ia or Ib were used at concentrations ranging form 10 nM to 10.000 nM (from 500 nM to 10000 nM for Tb CatB); thus, serial dilutions in DMSO were prepared with the minimal concentration of inhibitor Ia or Ib used for calculations and at least 10 times higher than that of the enzyme. These experiments were performed by distributing inhibitor Ia or Ib in 96 wells, fluorescence was recorded on a Flex Station fluorimeter (Molecular Devices), 355 nm excitation and 460 nm emission at 25° C., distributing 100 μl of substrate using a multichannel pipette at a similar volume of the inhibitor enzyme preincubated at 25° C. for 5 minutes. In each series of experiments, the enzyme with DMSO and the enzyme in the presence of the known irreversible inhibitor K11777 (N methyl piperazine-Phe-HPhe-(CH═CHSO2 Ph)), Arris Pharmaceuticals Inc., South San Francisco, Calif.) were used as controls.
(§2) Enzyme inhibition data were similarly determined: recombinant cruzain at 4 nM with 5 μM of Z-Phe-Arg-AMC (Km=1 μM) in buffer A (100 mM of sodium acetate, pH 5.5 with 5 mM of DTT and 0.001% Triton-X 100 (Sigma)); recombinant rhodesain at 4 nM of enzyme and 5 μM Z-Phe-Arg-AMC (Km=1 μM) in buffer A; recombinant Tb CatB at 40 nM of enzyme and 5 μM of Z-Phe-Arg-AMC (Km=60 μM) in buffer A and recombinant FP2 at 4 nM with 5 μM of Z-Phe-Arg-AMC (Km=1 μM) in buffer A. IC50 values were determined by direct reading of the semi-log plot of reaction speed versus inhibitor concentration.

[4] = target: cruzain (Trypanosoma cruzi, UniProt P25779); test: biochemical; format: biochemical; conditions: for % inhibition (DMSO) Cruzain: concentration not given; for activity against cruzain (in words): summary statement
[5] = target: cathepsin B (Tb CatB) (Trypanosoma brucei, UniProt Q6R7Z5); test: Enzymatic inhibition of recombinant Tb CatB, fluorogenic Z-Phe-Arg-AMC substrate; format: biochemical; conditions: for % inhibition (DMSO) TbCat B: concentration not given; for activity against cathepsin B (in words): summary statement, said to indicate selectivity
Procedure: as §1, §2

Sequence of cathepsin B (Tb CatB) (Q6R7Z5 entry or part of it): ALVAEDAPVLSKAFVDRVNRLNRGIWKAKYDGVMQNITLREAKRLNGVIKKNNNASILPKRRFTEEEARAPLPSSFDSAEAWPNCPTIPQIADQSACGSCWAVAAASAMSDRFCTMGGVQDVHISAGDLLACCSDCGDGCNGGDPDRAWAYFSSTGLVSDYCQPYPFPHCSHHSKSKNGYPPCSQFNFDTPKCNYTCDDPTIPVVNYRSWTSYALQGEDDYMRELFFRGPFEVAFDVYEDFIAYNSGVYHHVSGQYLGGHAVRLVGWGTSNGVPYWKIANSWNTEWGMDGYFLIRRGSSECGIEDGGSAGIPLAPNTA
Sequence of rhodesain (Q95PM0 entry or part of it): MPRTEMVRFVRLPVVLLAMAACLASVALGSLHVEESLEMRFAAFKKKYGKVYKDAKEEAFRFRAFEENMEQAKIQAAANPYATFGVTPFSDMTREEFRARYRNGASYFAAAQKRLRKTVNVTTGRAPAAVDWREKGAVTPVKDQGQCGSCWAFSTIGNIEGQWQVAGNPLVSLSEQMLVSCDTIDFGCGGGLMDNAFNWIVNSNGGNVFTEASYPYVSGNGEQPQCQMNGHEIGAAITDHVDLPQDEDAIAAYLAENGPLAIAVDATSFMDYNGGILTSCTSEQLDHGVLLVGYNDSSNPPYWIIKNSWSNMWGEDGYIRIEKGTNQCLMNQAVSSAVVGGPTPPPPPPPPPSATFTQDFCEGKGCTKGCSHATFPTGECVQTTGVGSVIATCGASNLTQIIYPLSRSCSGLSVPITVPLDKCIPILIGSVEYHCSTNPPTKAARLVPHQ
Sequence of cruzain (P25779 123-467): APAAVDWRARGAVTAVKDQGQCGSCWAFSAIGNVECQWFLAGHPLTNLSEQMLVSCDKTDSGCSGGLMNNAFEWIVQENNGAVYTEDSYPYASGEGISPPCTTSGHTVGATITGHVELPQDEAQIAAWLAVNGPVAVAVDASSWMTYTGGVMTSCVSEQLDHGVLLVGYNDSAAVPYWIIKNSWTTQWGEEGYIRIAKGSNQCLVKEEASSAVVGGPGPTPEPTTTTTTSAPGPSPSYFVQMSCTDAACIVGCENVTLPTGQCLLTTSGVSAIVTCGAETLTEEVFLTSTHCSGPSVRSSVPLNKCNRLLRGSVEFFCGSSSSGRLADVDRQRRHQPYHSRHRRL
Sequence of falcipain (FP2) (Q8I6U4 244-484): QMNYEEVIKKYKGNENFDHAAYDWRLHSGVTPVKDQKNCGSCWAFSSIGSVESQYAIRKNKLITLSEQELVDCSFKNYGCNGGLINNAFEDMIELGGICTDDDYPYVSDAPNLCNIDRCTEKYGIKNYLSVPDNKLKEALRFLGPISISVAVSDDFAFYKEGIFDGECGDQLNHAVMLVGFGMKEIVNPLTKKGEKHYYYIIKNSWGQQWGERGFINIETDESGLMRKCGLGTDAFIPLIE

Row | SMILES | % inhibition (DMSO) Tbb [1] [%] | IC50 [2] [nM] | IC50 [3] [nM] | % inhibition (DMSO) Rhodesain [3] [%] | activity against rhodesain (in words) [3] | IC50 [4] [nM] | % inhibition (DMSO) Cruzain [4] [%] | activity against cruzain (in words) [4] | IC50 [5] [nM] | % inhibition (DMSO) TbCat B [5] [%] | activity against cathepsin B (in words) [5]
1 | CCOC(=O)[C@H]1O[C@@H]1C(=O)[C@H](CCc1ccccc1)NC(=O)[C@H](Cc1ccccc1)NC(=O)OCc1ccccc1 [Compound Ia.1, Ethyl (2S,3S)-3-[(2S)-2-((2S)-2-benzyloxycarbonylamino-3-phenylpropionylamino)-4-phenylbutyryl]oxirane-2-carboxylate] | 42 | 71 | 3.5 | 98 | very active | 20 | 93 | very active | > 1000 | 51 | not against cathepsin B
2 | CCOC(=O)[C@@H]1O[C@H]1C(=O)[C@H](CCc1ccccc1)NC(=O)[C@H](Cc1ccccc1)NC(=O)OCc1ccccc1 [Compound Ib.1, Ethyl (2R,3R)-3-[(2S)-2-((2S)-2-benzyloxycarbonylamino-3-phenylpropionylamino)-4-phenylbutyryl]oxirane-2-carboxylate] | −2 | 44 | 30 | 80 | very active | 50 | 55 | very active | 400 | 47 | not against cathepsin B
